Results reported in PubChem BioAssay AID1963850 (Molecular Pharmacology Branch, DTP, NCI, 2024).

System: 192522-019-R-J2-PDC complex tumor spheroid viability
Assay: Anticancer human tumor 192522-019-R-J2-PDC patient-derived colon adenocarcinoma cell line growth inhibition [POLQ]
Conditions: for IC50: curve of first compound; for viability, T/C: stronger effect = lower value
Procedure, shortened: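 Growth inhibition in 3D: complex spheroids (tumor PDC, HUVEC, MSC) treated with POLQ inhibitor combinations; where Cmax unknown, highest tested concentration 10 microM, except SN-38 at 1 microM.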

[1] = second compound 0.0316 µM, first compound 0.0316 µM
[2] = second compound 0.0316 µM, first compound 0.1 µM
[3] = second compound 0.0316 µM, first compound 0.316 µM
[4] = second compound 0.0316 µM, first compound 1 µM
[5] = second compound 0.0316 µM, first compound 3.16 µM
[6] = second compound 0.0316 µM, first compound 10 µM
[7] = second compound 0.1 µM, first compound 0.0316 µM
[8] = second compound 0.1 µM, first compound 0.1 µM
[9] = second compound 0.1 µM, first compound 0.316 µM
[10] = second compound 0.1 µM, first compound 1 µM
[11] = second compound 0.1 µM, first compound 3.16 µM
[12] = second compound 0.1 µM, first compound 10 µM
[13] = second compound 0.316 µM, first compound 0.0316 µM
[14] = second compound 0.316 µM, first compound 0.1 µM
[15] = second compound 0.316 µM, first compound 0.316 µM
[16] = second compound 0.316 µM, first compound 1 µM
[17] = second compound 0.316 µM, first compound 3.16 µM
[18] = second compound 0.316 µM, first compound 10 µM
[19] = second compound 1 µM, first compound 0.0316 µM
[20] = second compound 1 µM, first compound 0.1 µM
[21] = second compound 1 µM, first compound 0.316 µM
[22] = second compound 1 µM, first compound 1 µM
[23] = second compound 1 µM, first compound 3.16 µM
[24] = second compound 1 µM, first compound 10 µM
[25] = second compound 3.16 µM, first compound 0.0316 µM
[26] = second compound 3.16 µM, first compound 0.1 µM
[27] = second compound 3.16 µM, first compound 0.316 µM
[28] = second compound 3.16 µM, first compound 1 µM
[29] = second compound 3.16 µM, first compound 3.16 µM
[30] = second compound 3.16 µM, first compound 10 µM
[31] = second compound 10 µM, first compound 0.0316 µM
[32] = second compound 10 µM, first compound 0.1 µM
[33] = second compound 10 µM, first compound 0.316 µM
[34] = second compound 10 µM, first compound 1 µM
[35] = second compound 10 µM, first compound 3.16 µM
[36] = second compound 10 µM, first compound 10 µM
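Further: spheroids exposed to drugs for seven days before reading.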
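Wherever viability, T/C is given: 100% = DMSO vehicle control viability in luminescence.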

COc1cccc2c1C(=O)c1c(O)c3c(c(O)c1C2=O)CC(O)(C(=O)CO)CC3OC1CC(N)C(O)C(C)O1 (stereo unspecified) + COC1C(OC(N)=O)C(O)C(Oc2ccc3c(O)c(NC(=O)c4ccc(O)c(CC=C(C)C)c4)c(=O)oc3c2C)OC1(C)C
IC50 (second compound 0.0316 µM): > 10 µM | IC50 (second compound 0.1 µM): > 10 µM | IC50 (second compound 0.316 µM): > 10 µM | IC50 (second compound 1 µM): > 10 µM | IC50 (second compound 3.16 µM): > 10 µM | IC50 (second compound 10 µM): > 10 µM | viability, T/C [1]: 94.3% | viability, T/C [2]: 79.1% | viability, T/C [3]: 64.9% | viability, T/C [4]: 78.1% | viability, T/C [5]: 65.2% | viability, T/C [6]: 55.3% | viability, T/C [7]: 104% | viability, T/C [8]: 84.4% | viability, T/C [9]: 65.6% | viability, T/C [10]: 78.4% | viability, T/C [11]: 61.2% | viability, T/C [12]: 55.2% | viability, T/C [13]: 98.2% | viability, T/C [14]: 86.4% | viability, T/C [15]: 61.3% | viability, T/C [16]: 79.3% | viability, T/C [17]: 61.9% | viability, T/C [18]: 55.6% | viability, T/C [19]: 104% | viability, T/C [20]: 92.8% | viability, T/C [21]: 68.7% | viability, T/C [22]: 76.3% | viability, T/C [23]: 71% | viability, T/C [24]: 53.1% | viability, T/C [25]: 101% | viability, T/C [26]: 85.5% | viability, T/C [27]: 69.5% | viability, T/C [28]: 73% | viability, T/C [29]: 67% | viability, T/C [30]: 54.7% | viability, T/C [31]: 102% | viability, T/C [32]: 87.4% | viability, T/C [33]: 66.5% | viability, T/C [34]: 78% | viability, T/C [35]: 70.8% | viability, T/C [36]: 58.6%

CC1COCCN1c1cc(-c2ccnn2C)c2ccnc(-c3ccn[nH]3)c2n1 (stereo unspecified) + Nc1ccc(C#CCN(C(=O)Cc2ncc(C(F)(F)F)cc2C(F)(F)F)c2ccc(F)cc2)nn1
IC50 (second compound 0.0316 µM): 0.592 µM | IC50 (second compound 0.1 µM): 0.444 µM | IC50 (second compound 0.316 µM): 0.508 µM | IC50 (second compound 1 µM): 0.651 µM | IC50 (second compound 3.16 µM): 0.57 µM | IC50 (second compound 10 µM): 0.895 µM | viability, T/C [1]: 104% | viability, T/C [2]: 83.7% | viability, T/C [3]: 59.6% | viability, T/C [4]: 37% | viability, T/C [5]: 44% | viability, T/C [6]: 46.1% | viability, T/C [7]: 101% | viability, T/C [8]: 86.1% | viability, T/C [9]: 54.1% | viability, T/C [10]: 38.7% | viability, T/C [11]: 40.2% | viability, T/C [12]: 46.2% | viability, T/C [13]: 96.8% | viability, T/C [14]: 93.5% | viability, T/C [15]: 53.6% | viability, T/C [16]: 35.5% | viability, T/C [17]: 45.6% | viability, T/C [18]: 54.2% | viability, T/C [19]: 95.8% | viability, T/C [20]: 84.5% | viability, T/C [21]: 61.4% | viability, T/C [22]: 40.2% | viability, T/C [23]: 41.2% | viability, T/C [24]: 45% | viability, T/C [25]: 100% | viability, T/C [26]: 81.9% | viability, T/C [27]: 59.6% | viability, T/C [28]: 36.5% | viability, T/C [29]: 42% | viability, T/C [30]: 47.1% | viability, T/C [31]: 97.8% | viability, T/C [32]: 85.9% | viability, T/C [33]: 63.9% | viability, T/C [34]: 43.5% | viability, T/C [35]: 46.3% | viability, T/C [36]: 50.8%

COc1cc(C2c3cc4c(cc3C(OC3OC5COC(C)OC5C(O)C3O)C3COC(=O)C23)OCO4)cc(OC)c1O (stereo unspecified) + Cc1cccc(N(C)C(=O)C2C(O)CCN2c2nc(C)cc(C(F)(F)F)c2C#N)c1
IC50 (second compound 0.0316 µM): > 10 µM | IC50 (second compound 0.1 µM): > 10 µM | IC50 (second compound 0.316 µM): > 10 µM | IC50 (second compound 1 µM): > 10 µM | IC50 (second compound 3.16 µM): > 10 µM | IC50 (second compound 10 µM): > 10 µM | viability, T/C [1]: 96.8% | viability, T/C [2]: 91.4% | viability, T/C [3]: 103% | viability, T/C [4]: 86.1% | viability, T/C [5]: 64.7% | viability, T/C [6]: 68.5% | viability, T/C [7]: 103% | viability, T/C [8]: 98.8% | viability, T/C [9]: 97.1% | viability, T/C [10]: 90.1% | viability, T/C [11]: 58.6% | viability, T/C [12]: 72.1% | viability, T/C [13]: 107% | viability, T/C [14]: 108% | viability, T/C [15]: 96.4% | viability, T/C [16]: 93.3% | viability, T/C [17]: 65.8% | viability, T/C [18]: 68.3% | viability, T/C [19]: 108% | viability, T/C [20]: 97.6% | viability, T/C [21]: 98.9% | viability, T/C [22]: 95.7% | viability, T/C [23]: 70.5% | viability, T/C [24]: 69.3% | viability, T/C [25]: 113% | viability, T/C [26]: 105% | viability, T/C [27]: 102% | viability, T/C [28]: 88.5% | viability, T/C [29]: 79.9% | viability, T/C [30]: 63.1% | viability, T/C [31]: 117% | viability, T/C [32]: 104% | viability, T/C [33]: 105% | viability, T/C [34]: 91.6% | viability, T/C [35]: 80% | viability, T/C [36]: 65.2%
